Assay results reported in ChEMBL document CHEMBL3045310, “Synthesis of new benzotriazepin-5(2H)-one derivatives of expected antipsychotic activity” (Med Chem Res, 2013).
Active and inactive are the calls of the source. No cut-off for these calls is given here.

Key:
Mus musculus [1] = experiment: Antipsychotic activity in Mus musculus albino (mouse) assessed as ptosis at 3 mg/kg, ip relative to control; type: functional; conditions: route intraperitoneal
Mus musculus [2] = experiment: CNS depressant activity in Mus musculus albino (mouse) assessed as immobility time at 3 mg/kg, ip measured after 24 hr by forced swim test (reference value: 120 +/- 5.1 secs); type: functional; conditions: route intraperitoneal
Mus musculus [3] = experiment: Neurotoxicity against Mus musculus albino (mouse) at 3 mg/kg, ip after 30 min by rotarod test; type: toxicity, organism-based; parameters: dose 3 mg/kg, route intraperitoneal; conditions: in vivo, 0.5 h
Mus musculus [4] = experiment: Neurotoxicity against Mus musculus albino (mouse) assessed as fall from horizontal screen at 3 mg/kg, ip after 30 min by horizontal screen test relative to control; type: toxicity, organism-based; parameters: dose 3 mg/kg, route intraperitoneal; conditions: in vivo, 0.5 h
Mus musculus [5] = experiment: Neurotoxicity against Mus musculus albino (mouse) assessed as inability to climb horizontal screen at 3 mg/kg, ip after 30 min by horizontal screen test relative to control; type: toxicity, organism-based; parameters: dose 3 mg/kg, route intraperitoneal; conditions: in vivo, 0.5 h
Mus musculus [6] = experiment: Anticonvulsant activity in Mus musculus albino (mouse) assessed as inhibition of PTZ-induced seizure at 3 mg/kg, ip administered 1 hr prior to PTZ-challenge measured after 2 to 4 min relative to control; type: functional, organism-based; parameters: dose 3 mg/kg

Row | Compound | Activity (Mus musculus [1]) | Time (Mus musculus [2]) | Activity (Mus musculus [3]) | Activity (Mus musculus [4]) | Activity (Mus musculus [5]) | inhibition (Mus musculus [6])
1 | CN1c2ccccc2C(=O)NN(c2ccccc2)C1c1ccccc1[N+](=O)[O-] (configuration not stated) | 0% | 141 s | Toxic | 16.7% | 16.7% | inactive
2 | CN1c2ccccc2C(=O)NN(c2ccccc2)C1c1ccc([N+](=O)[O-])cc1 (configuration not stated) | 50% | 125 s | Non-toxic | 0% | 0% | inactive
3 | CN1c2ccccc2C(=O)NN(c2ccccc2)C1c1ccc(Cl)cc1 (configuration not stated) | 50% | 156 s | Toxic | 33.3% | 33.3% | inactive
4 | CN1c2ccccc2C(=O)NN(c2ccccc2)C1c1ccc(O)cc1 (configuration not stated) | 75% | 151 s | Toxic | 16.7% | 0% | inactive
5 | CN1CN(c2ccccc2)NC(=O)c2ccccc21 | 100% | 178 s | Toxic | 50% | 0% | inactive
6 | CN1c2ccccc2C(=O)NN(c2ccccc2)C1c1ccc(Br)cc1 (configuration not stated) | 0% | 140 s | Toxic | 16.7% | 16.7% | inactive
7 | CN1CCN(C2=Nc3cc(Cl)ccc3Nc3ccccc32)CC1 [CLOZAPINE] | 100% | 194 s | Toxic | 50% | 16.7% | inactive
8 | COc1cc(C2N(C)c3ccccc3C(=O)NN2c2ccccc2)cc(OC)c1OC (configuration not stated) | 50% | 135 s | Non-toxic | 0% | 0% | inactive
9 | CN1C(=S)N(c2ccccc2)NC(=O)c2ccccc21 | 100% | 129 s | Non-toxic | 0% | 0% | inactive
10 | CN1c2ccccc2C(=O)NN(c2ccccc2)C1c1ccccc1 (configuration not stated) | 0% | 118 s | Non-toxic | 0% | 0% | inactive
11 | COc1ccc(C2N(C)c3ccccc3C(=O)NN2c2ccccc2)cc1 (configuration not stated) | 75% | 141 s | Toxic | 16.7% | 0% | inactive
12 | CN1CN(C(=O)c2ccncc2)NC(=O)c2ccccc21 | 100% | 190 s | Toxic | 33.3% | 16.7% | inactive
